# Measurements: patent US5202348A, “Thiarubrine antifungal agents” (The University of British Columbia, priority 1990, dated 1993)
# Where two headings read alike, the source gives them in different places.
# What was measured:
# [1] = test system: C. albicans; assay: LC50 (24 hrs.), doses required to inhibit growth in 50%, different method; type: cell-based, Candida albicans; conditions: for IC50: Candida albicans, 24 hrs.
# Source text: Doses Required to Inhibit Growth of C. albicans
# in 50% During 24 hrs. (ng/ml)
# [2] = Growth inhibition of 3T3 during 24 hours exposure; type: cell-based, Mouse; conditions: mouse, 3t3 cells; Table 2; read-out: Toxicity Index, LC50 3T3 / LC50 C. albicans
# Procedure: (§1) 3T3 = Mouse fibroblasts
# (§2) Doses inhibiting growth in 50% were estimated by plotting concentration o
# (§3) a logarithmic scale and percent of growth inhibition for 24 hours exposur
# (§4) on a probability scale.
# [3] = test system: 3T3; assay: Growth inhibition of 3T3 during 24 hours exposure; type: cell-based, Mouse; conditions: Mus musculus, NIH3T3; 24 hours exposure; Table 1; read-out: Concentration causing 50% growth inhibition
# Procedure: as §1, §2, §3, §4
# [4] = test system: Aspergillus; assay: Anti-Aspergillus activity (summary); type: cell-based; conditions: Table 14;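 note: Letter grades where Y means active and y means less active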
# [5] = test system: E. coli; assay: Growth inhibition of E. coli during 24 hours exposure; type: cell-based, Escherichia coli; conditions: 24 hours exposure, Table 4
# Procedure: as §2, §3, §4
# [6] = test system: C. albicans; assay: Growth inhibition of C. albicans during 24 hours exposure; type: cell-based, Candida albicans; conditions: 24 hours exposure, Table 3
# [7] = test system: P. aeruginosa; assay: Growth inhibition of P. aeruginosa during 24 hours exposure; type: cell-based, Pseudomonas aeruginosa; conditions: 24 hours exposure, Table 4
# Procedure: as §2, §3, §4
# [8] = test system: C. albicans; assay: Growth inhibition of C. albicans during 24 hours exposure; type: cell-based, Candida albicans; conditions: 24 hours exposure; for IC50: Candida albicans
# Procedure: as §2, §3, §4
# [9] = test system: Aspergillus fumigatus; assay: Sensitivity of Aspergillus fumigatus, agar diffusion method; type: cell-based; conditions: disc diameter 6 mm, read-out: Zone of Growth Inhibition
# Source text: Results were obtained by agar diffusion method. Disc diameter - 6 mm. -* = no zone over disc diameter.
# [10] = test system: bacteria; assay: Anti-bacterial activity (summary); type: cell-based; conditions: Table 14
# [11] = test system: Candida; assay: Anti-Candida activity (summary); type: cell-based; conditions: Table 14;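 note: Letter grades where Y means active and y means less active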
# [12] = test system: E. coli; assay: Growth inhibition of E. coli during 24 hours exposure; type: cell-based, Escherichia coli; conditions: 24 hours exposure, Table 3
# [13] = Growth inhibition of P815 mastocytoma during 24 hours exposure; type: cell-based, Mouse; conditions: mouse, p815 cells
# Procedure: (§5) P815 = Mouse mastocytoma […]
# as §3, §4
# [14] = test system: P815; assay: as above; type: cell-based, Mouse; conditions: 24 hours exposure
# Procedure: as §5, §3, §4
# [15] = Growth inhibition of L1210 during 24 hours exposure; type: cell-based, Mouse; conditions: mouse, l1210 cells; Table 2; read-out: Toxicity Index, LC50 L1210 / C. albicans
# Procedure: (§6) L1210 = Mouse lymphocytic leukemia
# as §2, §3, §4
# [16] = test system: L1210; assay: as above; type: cell-based, Mouse; conditions: Mus musculus, L1210; 24 hours exposure; Table 1; read-out: Concentration causing 50% growth inhibition
# Procedure: as §6, §2, §3, §4
# [17] = Growth inhibition of WEHI-3 during 24 hours exposure; type: cell-based, Mouse; conditions: mouse, wehi-3 cells; Table 2; read-out: Toxicity Index, LC50 WEHI-3 / LC50 C. albicans
# Procedure: (§7) WEHl3 = Mouse myelomonocyte
# as §2, §3, §4
# [18] = test system: WEHI-3; assay: as above; type: cell-based, Mouse; conditions: Mus musculus, WEHI-3; 24 hours exposure; Table 1; read-out: Concentration causing 50% growth inhibition
# Procedure: as §7, §2, §3, §4
# [19] = test system: P. aeruginosa; assay: Growth inhibition of P. aeruginosa during 24 hours exposure; type: cell-based, Pseudomonas aeruginosa; conditions: for Minimal concentration causing 100% growth inhibition: Table 3
# [20] = test system: P815 mastocytoma; assay: LC50 (24 hrs.), doses required to inhibit growth in 50%, different method; type: cell-based; conditions: Mus musculus, P815, 24 h
# [21] = test system: murine cytomegalovirus and Sindbis virus; conditions: phototoxic activity; cited from earlier work
# [22] = test system: Sindbis virus; conditions: only in presence of long wave ultraviolet radiation; cited from earlier work
# [23] = test system: murine cytomegalovirus; conditions: only in presence of long wave ultraviolet radiation; cited from earlier work
# [24] = test system: above organisms, as well as CHO cells; conditions: UV-A light required; cited from earlier work
# [25] = Table 7, read-out: LC50 (24 hrs.), dose required to inhibit growth in 50%
# [26] = Table 13, read-out: Lc50 24 hrs.
compound,measurement,setting,value
"Clc1ccc(COC(Cn2ccnc2)c2ccc(Cl)cc2Cl)cc1 (stereo not drawn) [Econazole, reference compound]",IC50,[1]; [25],0.056 µg/mL
CC#CC1=CC=C(C#CC#CC(O)CO)SS1 (stereo not drawn) [Thiarubrine E],selectivity ratio at 24 h,[2],86
same,IC50,[3],0.12 µg/mL
same,Anti-Aspergillus,[4],Y
same,IC50,"[5]; Escherichia coli, read-out: Minimal concentration causing 50% growth inhibition",0.015 µg/mL
same,Inhibition of growth of Candida albicans,[1],nanogram/ml range
same,IC50,[1]; [25],0.006 µg/mL
same,MIC,"[6]; Candida albicans, read-out: Minimal concentration causing 100% growth inhibition",0.0048 µg/mL
same,IC50,"[7]; Pseudomonas aeruginosa, read-out: Minimal concentration causing 50% growth inhibition",0.28 µg/mL
same,IC50,"[8]; Table 1, read-out: Concentration causing 50% growth inhibition",0.0014 µg/mL
same,IC50,"[8]; Table 4, read-out: Minimal concentration causing 50% growth inhibition",0.0014 µg/mL
same,zone of inhibition at 0.01 µg/disc,[9]; 10 ng/disc,17 mm
same,zone of inhibition at 0.1 µg/disc,[9]; 100 ng/disc,36 mm
same,zone of inhibition at 1 µg/disc,"[9]; 1,000 ng/disc",50 mm
same,zone of inhibition at 10 µg/disc,"[9]; 10,000 ng/disc",50 mm
same,Anti-bacterial,[10],Y
same,Anti-Candida,[11],Y
same,MIC,"[12]; Escherichia coli, read-out: Minimal concentration causing 100% growth inhibition",0.019 µg/mL
same,selectivity ratio at 24 h,"[13]; 50% growth inhibition, Table 4, read-out: Ratio of concentration needed to inhibit growth in 50%, P815 vs C. albicans",17
same,selectivity ratio at 24 h,"[13]; 100% growth inhibition, Table 3, read-out: Ratio of minimal concentration causing 100% growth inhibition, P815 line vs C. albicans",65
same,selectivity ratio at 24 h,"[13]; Table 2, read-out: Toxicity Index, LC50 P815 / LC50 C. albicans",17
same,IC50,"[14]; Mus musculus, P815, Table 1, read-out: Concentration causing 50% growth inhibition",0.024 µg/mL
same,IC100,"[14]; Mus musculus, P815, Table 3, read-out: Minimal concentration causing 100% growth inhibition",0.312 µg/mL
same,IC50,"[14]; Mus musculus, P815, Table 4, read-out: Minimal concentration causing 50% growth inhibition",0.024 µg/mL
same,selectivity ratio at 24 h,[15],19
same,IC50,[16],0.027 µg/mL
same,selectivity ratio at 24 h,[17],28
same,IC50,[18],0.04 µg/mL
same,MIC,"[19]; Pseudomonas aeruginosa, Table 3, read-out: Minimal concentration causing 100% growth inhibition",0.625 µg/mL
same,IC50,"[20]; read-out: LC50 (24 hrs.), dose required to inhibit growth in 50%",0.028 µg/mL
c1csc(-c2ccc(-c3cccs3)s2)c1 [alpha-terthienyl],Order of potency,[21],alpha-terthienyl thiarubrine-A > phenylheptatriyne > ACBP-thiophene > thiophene-A
same,Toxicity to virus,[22],extremely toxic
same,Toxicity to virus,[23],extremely toxic
Gentamycin [reference compound],Minimal concentration causing 50% growth inhibition,[5],0.37 µg/mL
same,Minimal concentration causing 50% growth inhibition,[7],1.0 µg/mL
same,Minimal concentration causing 100% growth inhibition,[12],1.25 µg/mL
same,Minimal concentration causing 100% growth inhibition,[19],2.5 µg/mL
C=CC#CC#CC1=CC=C(C#CCO)SS1 [Thiarubrine H],Inhibition of growth of Candida albicans,[1],nanogram/ml range
same,IC50,[1]; [26],0.004 µg/mL
same,Anti-Candida,[11],Y
same,IC50,[20]; read-out: Lc50 24 hrs.,0.059 µg/mL
C=CC#CC#Cc1ccc(C#CC)s1 [thiophene A],Order of potency,[21],alpha-terthienyl thiarubrine-A > phenylheptatriyne > ACBP-thiophene > thiophene-A
same,Phototoxicity,[24],"phototoxic, requiring UV-A light for biological activity"
CC#CC1=CC=C(C#CC#CC(O)CCl)SS1 (stereo not drawn) [Thiarubrine G],Anti-Aspergillus,[4],Y
same,Inhibition of growth of Candida albicans,[1],nanogram/ml range
same,IC50,[1]; [26],0.008 µg/mL
same,Anti-bacterial,[10],Y
same,Anti-Candida,[11],Y
same,IC50,[20]; read-out: Lc50 24 hrs.,0.09 µg/mL
CC#CC1=CC=C(C#CC#CC(Cl)CO)SS1 (stereo not drawn) [Thiarubrine F],Anti-Aspergillus,[4],Y
same,Inhibition of growth of Candida albicans,[1],nanogram/ml range
same,IC50,[1]; [26],0.006 µg/mL
same,Anti-bacterial,[10],Y
same,Anti-Candida,[11],Y
same,IC50,[20]; read-out: Lc50 24 hrs.,0.14 µg/mL
"C=C/C=C/C#CC1=CC=C(C#CC)SS1 [Thiarubrine C, reference compound]",Anti-Aspergillus,[4],Y
same,Anti-bacterial,[10],Y
same,Anti-Candida,[11],Y
CC#Cc1ccc(C#CC#CC(O)CO)s1 (stereo not drawn) [Thiophene E],Minimal concentration causing 50% growth inhibition,[5],> 5.0 µg/mL
same,Minimal concentration causing 100% growth inhibition,[6],> 5.0 µg/mL
same,Minimal concentration causing 50% growth inhibition,[7],> 5.0 µg/mL
same,Minimal concentration causing 50% growth inhibition,[8]; Table 4,4.5 µg/mL
same,Minimal concentration causing 100% growth inhibition,[12],> 5.0 µg/mL
same,Minimal concentration causing 100% growth inhibition,[14]; Table 3,> 5.0 µg/mL
same,Minimal concentration causing 50% growth inhibition,[14]; Table 4,4.0 µg/mL
same,Minimal concentration causing 100% growth inhibition,[19],> 5.0 µg/mL
"C=CC#CC1=CC=C(C#CC#CC)SS1 [Thiarubrine B, 3 (pent-3-yn-1-ynyl) 6 (3-buten-1-ynyl)-1,2-dithiacyclohexa-3,5-diene, reference compound]",Anti-Aspergillus,[4],Y
same,Anti-bacterial,[10],Y
same,Anti-Candida,[11],Y
